These results are taken from paper PMC10870044, “The Interplay Between HIF‐1α and EZH2 in Lung Cancer and Dual‐Targeted Drug Therapy” (Advanced Science, 2023).

The subject of one experiment is HIF‐1. Description: HIF-1 luciferase reporter gene assay (U251-HRE / U251-PGL3). It counts as cell-based. To be noted: hypoxic environments, compared to the control group. On the procedure:
HIF‐1 activity was assessed in U251‐HRE and U251‐PGL3 using a 96‐well format. Cells were rinsed twice with ice‐cold PBS, lysed with 200 µl of passive lysis buffer (Promega, Wisconsin, USA), and incubated at room temperature for 10 min. Lysates were centrifuged and stored at −80°C until assayed. Luciferase assays were conducted by pipetting 20 µl of cell lysate into each well of a 96‐well plate and analyzed immediately after adding the luciferase reagent (Promega) in a multi‐mode microplate reader (Centro LB960, Berthold, Germany).

Experiment [1] has as its system A549/2‐ME2 and H460/2‐ME2 cells. Description: Epigenetics Compound Library screen in HIF-1 inhibitor-resistant cells. It counts as cell-based, Human.
The test system of another experiment is H460/DR cells. Description: Annexin V-FITC/PI apoptosis assay. It counts as cell-based, Human. The following applies: 48 h exposure. As for the experimental part: (§1) After incubation for 48 h, cells were harvested by centrifugation and washed twice in PBS. Then stained the cells according to the FITC Annexin V Apoptosis Detection Kit II (BD Biosciences, USA). Control cells stained with Annexin‐V or PI alone were used to compensate for flow cytometric analysis. Viable cells were those with both Annexin‐V and PI‐double negative staining. Annexin‐V‐positive and PI‐negative cells were defined as early apoptotic cells, and Annexin‐V and PI‐double‐positive cells were defined as late apoptotic cells.

For a further experiment, the system named is A549/DR cells. Description: Annexin V-FITC/PI apoptosis assay. It counts as cell-based, Human. The following applies: 48 h exposure. On the procedure: as §1
In another experiment the test system is multiple myeloma. Also on record: method as in PMID 20499131, PMID 17947482, PMID 16832603, PMID 16197617. The following applies: sixty patients with multiple myeloma, phase II study; ref [15], [16], [17], [18]; cited from earlier work.
In experiment [2] the test system is A549/DR and H460/DR cells. Description: CCK-8 cytotoxicity, resistance ratio in dual drug-resistant cells. It counts as cell-based, Human. To be noted: A549/DR and H460/DR vs parental. On the procedure:
Cells (4 × 10^3per well) were seeded into a 96‐well plate and cultured at 37°C in a 5% CO2 incubator. After 24 h, different concentrations of 2‐ME2 were put into wells which ranged from 0.01 to 100 µM with a minimum of three technical replicates. After 72 h, 10 µl CCK‐8 (MCE, NY, USA) was added to each well and incubated for an additional 4 h at 37°C in a 5% CO2 incubator. Then, […]. The optical density values were measured at 450 nm using a microplate reader (Molecular Devices, San Jose, CA, USA).

The test system of a further experiment is HIF‐1α. Description: Western blot of HIF-1α after EZH2 inhibitors. Format: cell-based. The following applies: compared to the control group. In general terms: In western blotting, separated proteins are transferred to a membrane and probed.

Each structure is given as a SMILES string.

Regarding `CCN(c1cc(-c2ccc(CN3CCOCC3)cc2)cc(C(=O)NCc2c(C)cc(C)[nH]c2=O)c1C)C1CCOCC1` [EPZ6438], the “luciferase activity in U251” value in the experiment with HIF‐1 is “promoted luciferase activity”. Also, the “sensitivity of resistant cells compared to the parental cells” value in experiment [1] is listed as “more sensitive”.

For `COc1cc2c(cc1O)CC[C@@H]1[C@@H]2CC[C@]2(C)[C@@H](O)CC[C@@H]12` [2‐ME2, 2‐methoxy estradiol], the apoptotic cell population entry in the experiment with H460/DR cells and with A549/DR cells was “much lower” each time. Besides, in the experiment with multiple myeloma, the “objective response in patients” value is listed as “no objective response”. Also, in experiment [2], the “resistance ratio (RI) of the IC50 in drug‐resistant cells compared to the IC50 in parental cells” value is recorded as “≈ 4”.

For `CC[C@H](C)n1cc(C)c2c(C(=O)NCc3c(C)cc(C)[nH]c3=O)cc(-c3ccc(N4CCNCC4)nc3)cc21` [GSK126], the apoptotic cell population result in the experiment on H460/DR cells and in the experiment with A549/DR cells was “much lower” in each case. Besides, the “luciferase activity in U251” value with HIF‐1 is “promoted luciferase activity”. Further, the “sensitivity of resistant cells compared to the parental cells” value in experiment [1] is given as “more sensitive”. For the same compound, in the experiment with HIF‐1α, the “HIF‐1α protein levels” value is “significantly higher levels of HIF‐1α protein”. Also, the “resistance ratio (RI) of the IC50 in drug‐resistant cells compared to the IC50 in parental cells” value in experiment [2] is “≈ 4”.

For the compound `CCN(c1cc(C#CCN2CCOCC2)cc(C(=O)NCc2c(C)cc(C)[nH]c2=O)c1C)[C@H]1CC[C@H](N(C)CCOC)CC1` [EPZ011989], the “sensitivity of resistant cells compared to the parental cells” value in experiment [1] was “more sensitive”.
